How the values were obtained:
[1] = test system: panel of 106 targets, including receptors, enzymes, ion channels, and transporters; experiment: Selectivity panel (Eurofins Panlabs), overall; settings: 10 μmol/L
Source text: (§1) The selectivity of T‐495 at 10 μmol/L against a panel of 106 targets, including receptors, enzymes, ion channels, and transporters, was characterized (Eurofins Panlabs Taiwan Ltd., Taipei, Taiwan).

[2] = test system: ATPase, Ca2+, Skeletal Muscle; experiment: Selectivity panel; assay type: biochemical
Source text: as §1

[3] = test system: ATPase, Na+/K+, Heart; experiment: Selectivity panel; assay type: biochemical
Source text: as §1

[4] = target: T1, Carbonic anhydrase II (Homo sapiens, UniProt P00918); experiment: Selectivity panel; assay type: biochemical
T1 construct: purchased Eurofins Panlabs Taiwan Ltd
Source text: as §1

[5] = test system: Catechol-O-Methyl Transferase (COMT); experiment: Selectivity panel; assay type: biochemical
Source text: as §1

[6] = target: T2, Choline esterase, acetyl, ACES (Homo sapiens, UniProt P22303); experiment: Selectivity panel; assay type: biochemical
T2 construct: purchased Eurofins Panlabs Taiwan Ltd
Source text: as §1

[7] = target: T3, Cyclooxygenase-2 (COX-2) (Homo sapiens, UniProt P35354); experiment: Selectivity panel; assay type: biochemical
T3 construct: purchased Eurofins Panlabs Taiwan Ltd
Source text: as §1

[8] = target: T4, Lipoxygenase (5-LO) (Homo sapiens, UniProt P09917); experiment: Selectivity panel; assay type: biochemical
T4 construct: purchased Eurofins Panlabs Taiwan Ltd
T4 sequence (P09917 whole entry): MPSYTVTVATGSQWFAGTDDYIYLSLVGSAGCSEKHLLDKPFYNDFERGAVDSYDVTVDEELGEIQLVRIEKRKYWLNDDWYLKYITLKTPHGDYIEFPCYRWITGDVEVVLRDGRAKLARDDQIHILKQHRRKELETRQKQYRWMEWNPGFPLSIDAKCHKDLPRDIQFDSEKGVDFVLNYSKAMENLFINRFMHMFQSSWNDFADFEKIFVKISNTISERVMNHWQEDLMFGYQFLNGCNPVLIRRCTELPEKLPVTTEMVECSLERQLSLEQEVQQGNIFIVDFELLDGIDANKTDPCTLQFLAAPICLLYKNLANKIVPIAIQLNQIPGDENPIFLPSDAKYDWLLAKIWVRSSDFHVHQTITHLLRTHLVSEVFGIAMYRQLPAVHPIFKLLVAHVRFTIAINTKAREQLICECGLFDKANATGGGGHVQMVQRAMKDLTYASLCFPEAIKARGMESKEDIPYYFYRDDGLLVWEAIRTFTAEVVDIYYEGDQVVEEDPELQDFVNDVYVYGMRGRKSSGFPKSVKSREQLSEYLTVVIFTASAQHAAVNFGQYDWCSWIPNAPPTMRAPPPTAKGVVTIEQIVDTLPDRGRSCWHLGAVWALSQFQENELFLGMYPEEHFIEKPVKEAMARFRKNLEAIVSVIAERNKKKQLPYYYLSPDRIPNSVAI
Source text: as §1

[9] = target: T5, Matrix metalloproteinase-1 (MMP-1) (Homo sapiens, UniProt P03956); experiment: Selectivity panel; assay type: biochemical
T5 construct: purchased Eurofins Panlabs Taiwan Ltd
Source text: as §1

[10] = target: T6, Matrix metalloproteinase-7 (MMP-7) (Homo sapiens, UniProt P09237); experiment: Selectivity panel; assay type: biochemical
T6 construct: purchased Eurofins Panlabs Taiwan Ltd
T6 sequence (P09237 95-267): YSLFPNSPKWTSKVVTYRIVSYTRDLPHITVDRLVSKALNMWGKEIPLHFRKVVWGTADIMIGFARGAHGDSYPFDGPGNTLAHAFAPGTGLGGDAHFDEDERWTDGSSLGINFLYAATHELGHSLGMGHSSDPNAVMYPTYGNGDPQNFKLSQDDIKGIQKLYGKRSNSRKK
Source text: as §1

[11] = target: T7, Metalloproteinase, Neutral Endopeptidase (Homo sapiens, UniProt P08473); experiment: Selectivity panel; assay type: biochemical
T7 construct: purchased Eurofins Panlabs Taiwan Ltd
Source text: as §1

[12] = target: T8, Monoamine oxidase A (MAO-A) (Homo sapiens, UniProt P21397); experiment: Selectivity panel; assay type: biochemical
T8 construct: purchased Eurofins Panlabs Taiwan Ltd
Source text: as §1

[13] = target: T9, Monoamine oxidase B (MAO-B) (Homo sapiens, UniProt P27338); experiment: Selectivity panel; assay type: biochemical
T9 construct: purchased Eurofins Panlabs Taiwan Ltd
Source text: as §1

[14] = target: T10, Nitric oxide synthase, inducible (iNOS) (Mus musculus, UniProt P29477); experiment: Selectivity panel; assay type: biochemical
T10 construct: purchased Eurofins Panlabs Taiwan Ltd
Source text: as §1

[15] = target: T11, Peptidase, factor Xa (Homo sapiens, UniProt P00742); experiment: Selectivity panel; assay type: biochemical
T11 construct: purchased Eurofins Panlabs Taiwan Ltd
Source text: as §1

[16] = target: T12, Phosphodiesterase PDE10A2 (Homo sapiens, UniProt Q9Y233); experiment: Selectivity panel; assay type: biochemical
T12 construct: purchased Eurofins Panlabs Taiwan Ltd
Source text: as §1

[17] = test system: Phosphodiesterase PDE3; experiment: Selectivity panel; assay type: biochemical
Source text: as §1

[18] = target: T13, Phosphodiesterase PDE4D2 (Homo sapiens, UniProt Q08499); experiment: Selectivity panel; assay type: biochemical
T13 construct: purchased Eurofins Panlabs Taiwan Ltd
T13 sequence (Q08499 303-809 limits assumed): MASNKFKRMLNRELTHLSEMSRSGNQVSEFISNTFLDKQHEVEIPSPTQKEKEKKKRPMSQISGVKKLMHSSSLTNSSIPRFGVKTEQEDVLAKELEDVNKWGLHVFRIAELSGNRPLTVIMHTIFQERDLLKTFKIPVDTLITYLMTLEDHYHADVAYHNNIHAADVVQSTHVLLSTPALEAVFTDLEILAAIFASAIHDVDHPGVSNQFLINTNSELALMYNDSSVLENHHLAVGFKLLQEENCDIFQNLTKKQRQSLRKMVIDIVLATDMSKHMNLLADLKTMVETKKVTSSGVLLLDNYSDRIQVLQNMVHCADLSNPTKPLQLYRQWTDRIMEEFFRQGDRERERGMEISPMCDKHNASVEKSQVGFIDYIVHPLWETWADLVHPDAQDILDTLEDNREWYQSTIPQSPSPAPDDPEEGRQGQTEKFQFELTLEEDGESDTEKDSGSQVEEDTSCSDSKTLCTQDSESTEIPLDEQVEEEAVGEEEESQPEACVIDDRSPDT
Source text: as §1

[19] = test system: Phosphodiesterase PDE4; experiment: Selectivity panel; assay type: biochemical
Source text: as §1

[20] = target: T14, Phosphodiesterase PDE5 (Homo sapiens, UniProt O76074); experiment: Selectivity panel; assay type: biochemical
T14 construct: purchased Eurofins Panlabs Taiwan Ltd
Source text: as §1

[21] = target: T15, Phosphodiesterase PDE6 (Bos taurus, UniProt P11541+P23439); experiment: Selectivity panel; assay type: biochemical
T15 construct: purchased Eurofins Panlabs Taiwan Ltd
T15 sequence (P11541 whole entry): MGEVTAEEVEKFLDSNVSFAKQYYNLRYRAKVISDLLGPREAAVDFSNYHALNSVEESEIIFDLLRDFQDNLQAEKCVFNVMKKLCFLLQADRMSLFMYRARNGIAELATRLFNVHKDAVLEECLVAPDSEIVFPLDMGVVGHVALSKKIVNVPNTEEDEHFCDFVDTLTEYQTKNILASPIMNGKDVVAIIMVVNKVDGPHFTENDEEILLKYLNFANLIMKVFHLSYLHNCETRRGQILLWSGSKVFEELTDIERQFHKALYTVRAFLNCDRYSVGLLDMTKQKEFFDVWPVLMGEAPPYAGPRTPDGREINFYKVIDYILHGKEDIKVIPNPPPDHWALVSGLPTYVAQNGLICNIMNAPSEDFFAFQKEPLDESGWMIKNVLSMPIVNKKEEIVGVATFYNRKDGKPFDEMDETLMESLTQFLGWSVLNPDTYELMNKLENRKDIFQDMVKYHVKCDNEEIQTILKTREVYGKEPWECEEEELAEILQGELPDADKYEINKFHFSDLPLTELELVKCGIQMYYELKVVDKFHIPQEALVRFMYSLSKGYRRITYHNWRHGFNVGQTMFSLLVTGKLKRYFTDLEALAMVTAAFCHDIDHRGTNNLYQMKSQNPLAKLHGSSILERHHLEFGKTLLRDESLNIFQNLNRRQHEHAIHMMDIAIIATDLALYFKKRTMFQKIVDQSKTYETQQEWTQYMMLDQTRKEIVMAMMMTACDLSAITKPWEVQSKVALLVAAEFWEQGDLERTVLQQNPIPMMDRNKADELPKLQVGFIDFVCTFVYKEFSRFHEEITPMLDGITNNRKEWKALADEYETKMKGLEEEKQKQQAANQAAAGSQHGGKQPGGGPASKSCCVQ
T15 sequence (P23439 whole entry): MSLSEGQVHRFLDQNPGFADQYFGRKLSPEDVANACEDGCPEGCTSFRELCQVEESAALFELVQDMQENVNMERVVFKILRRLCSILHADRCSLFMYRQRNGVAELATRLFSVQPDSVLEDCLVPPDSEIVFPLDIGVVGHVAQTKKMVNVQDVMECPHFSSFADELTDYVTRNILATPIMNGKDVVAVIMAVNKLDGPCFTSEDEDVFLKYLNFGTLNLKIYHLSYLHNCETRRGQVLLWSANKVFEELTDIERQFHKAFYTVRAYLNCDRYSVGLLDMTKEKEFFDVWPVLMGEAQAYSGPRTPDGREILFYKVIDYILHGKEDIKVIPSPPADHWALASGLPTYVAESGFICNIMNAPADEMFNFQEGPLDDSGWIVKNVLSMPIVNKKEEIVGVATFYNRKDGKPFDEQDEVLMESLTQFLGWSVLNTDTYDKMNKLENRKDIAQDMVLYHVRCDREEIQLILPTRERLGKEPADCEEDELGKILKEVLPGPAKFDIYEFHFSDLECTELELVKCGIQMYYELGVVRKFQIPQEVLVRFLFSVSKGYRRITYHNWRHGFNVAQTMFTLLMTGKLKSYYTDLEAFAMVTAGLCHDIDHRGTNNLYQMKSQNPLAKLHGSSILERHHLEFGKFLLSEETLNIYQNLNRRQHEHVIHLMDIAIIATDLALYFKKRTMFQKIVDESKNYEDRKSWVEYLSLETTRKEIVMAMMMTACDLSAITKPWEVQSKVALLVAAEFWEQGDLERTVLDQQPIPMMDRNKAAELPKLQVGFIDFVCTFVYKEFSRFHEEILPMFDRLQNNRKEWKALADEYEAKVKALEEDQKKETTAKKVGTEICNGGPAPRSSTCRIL
Source text: as §1

[22] = test system: Protein kinase A (PKA); experiment: Selectivity panel; assay type: biochemical
Source text: as §1

[23] = test system: Protein kinase C (PKC), non-selective; experiment: Selectivity panel; assay type: biochemical
Source text: as §1

[24] = target: T16, Protein tyrosine kinase, EGF receptor (Homo sapiens, UniProt P00533); experiment: Selectivity panel; assay type: biochemical
T16 construct: purchased Eurofins Panlabs Taiwan Ltd
Source text: as §1

[25] = test system: Steroid 5α-reductase; experiment: Selectivity panel; assay type: biochemical
Source text: as §1

[26] = target: T17, Xanthine oxidase (Bos taurus, UniProt P80457); experiment: Selectivity panel; assay type: biochemical
T17 construct: purchased Eurofins Panlabs Taiwan Ltd
Source text: as §1

[27] = target: T18, Adenosine A2A (Homo sapiens, UniProt P29274); experiment: Selectivity panel; assay type: binding
T18 construct: purchased Eurofins Panlabs Taiwan Ltd
Source text: as §1

[28] = test system: Calcium channel L-type, dihydropyridine; experiment: Selectivity panel; assay type: binding
Source text: as §1

[29] = target: T19, Cholecystokinin CCK1 (CCKA) (Homo sapiens, UniProt P32238); experiment: Selectivity panel; assay type: binding
T19 construct: purchased Eurofins Panlabs Taiwan Ltd
Source text: as §1

[30] = target: T20, Dopamine D1 (Homo sapiens, UniProt P21728); experiment: Selectivity panel; assay type: binding
T20 construct: purchased Eurofins Panlabs Taiwan Ltd
Source text: as §1

[31] = target: T21, Dopamine D2S (Homo sapiens, UniProt P14416); experiment: Selectivity panel; assay type: binding
T21 construct: purchased Eurofins Panlabs Taiwan Ltd
T21 sequence (P14416 1-414 isoform P14416-2): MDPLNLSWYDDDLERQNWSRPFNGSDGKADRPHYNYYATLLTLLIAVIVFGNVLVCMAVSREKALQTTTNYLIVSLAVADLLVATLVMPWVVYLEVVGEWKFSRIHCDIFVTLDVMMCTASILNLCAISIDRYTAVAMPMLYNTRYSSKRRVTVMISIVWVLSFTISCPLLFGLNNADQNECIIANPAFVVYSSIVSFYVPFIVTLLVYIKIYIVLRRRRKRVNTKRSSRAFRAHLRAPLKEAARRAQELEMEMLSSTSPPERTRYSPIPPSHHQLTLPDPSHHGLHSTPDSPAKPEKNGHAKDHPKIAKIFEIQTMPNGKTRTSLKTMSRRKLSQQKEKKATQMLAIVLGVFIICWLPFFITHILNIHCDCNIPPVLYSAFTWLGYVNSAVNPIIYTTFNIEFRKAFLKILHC
Source text: as §1

[32] = test system: GABAB, non-selective; experiment: Selectivity panel; assay type: binding
Source text: as §1

[33] = test system: Glutamate, kainate; experiment: Selectivity panel; assay type: binding
Source text: as §1

[34] = target: T22, Histamine H1 (Homo sapiens, UniProt P35367); experiment: Selectivity panel; assay type: binding
T22 construct: purchased Eurofins Panlabs Taiwan Ltd
Source text: as §1

[35] = target: T23, Muscarinic M2 (Homo sapiens, UniProt P08172); experiment: Selectivity panel; assay type: binding
T23 construct: purchased Eurofins Panlabs Taiwan Ltd
T23 sequence (P08172 whole entry): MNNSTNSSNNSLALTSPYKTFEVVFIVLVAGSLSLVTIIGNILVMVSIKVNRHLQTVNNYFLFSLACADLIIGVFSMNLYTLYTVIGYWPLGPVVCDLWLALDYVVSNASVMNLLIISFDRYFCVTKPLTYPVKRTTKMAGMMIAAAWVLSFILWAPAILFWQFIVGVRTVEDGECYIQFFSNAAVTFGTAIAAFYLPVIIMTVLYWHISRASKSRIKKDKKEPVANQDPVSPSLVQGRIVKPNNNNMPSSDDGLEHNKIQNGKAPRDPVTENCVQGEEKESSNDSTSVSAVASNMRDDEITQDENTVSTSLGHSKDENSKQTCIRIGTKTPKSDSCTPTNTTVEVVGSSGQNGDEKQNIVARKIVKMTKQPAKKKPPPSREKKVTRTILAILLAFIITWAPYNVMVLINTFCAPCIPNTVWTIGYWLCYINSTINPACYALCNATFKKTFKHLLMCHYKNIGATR
Source text: as §1

[36] = target: T24, Opiate δ1 (OP1, DOP) (Homo sapiens, UniProt P41143); experiment: Selectivity panel; assay type: binding
T24 construct: purchased Eurofins Panlabs Taiwan Ltd
Source text: as §1

[37] = target: T25, Opiate μ (OP3, MOP) (Homo sapiens, UniProt P35372); experiment: Selectivity panel; assay type: binding
T25 construct: purchased Eurofins Panlabs Taiwan Ltd
Source text: as §1

[38] = test system: Potassium channel (SKCA); experiment: Selectivity panel; assay type: binding
Source text: as §1

[39] = target: T26, Progesterone PR-B (Homo sapiens, UniProt P06401); experiment: Selectivity panel; assay type: binding
T26 construct: purchased Eurofins Panlabs Taiwan Ltd
Source text: as §1

[40] = target: T27, Serotonin 5-HT2C (Homo sapiens, UniProt P28335); experiment: Selectivity panel; assay type: binding
T27 construct: purchased Eurofins Panlabs Taiwan Ltd
T27 sequence (P28335 33-458): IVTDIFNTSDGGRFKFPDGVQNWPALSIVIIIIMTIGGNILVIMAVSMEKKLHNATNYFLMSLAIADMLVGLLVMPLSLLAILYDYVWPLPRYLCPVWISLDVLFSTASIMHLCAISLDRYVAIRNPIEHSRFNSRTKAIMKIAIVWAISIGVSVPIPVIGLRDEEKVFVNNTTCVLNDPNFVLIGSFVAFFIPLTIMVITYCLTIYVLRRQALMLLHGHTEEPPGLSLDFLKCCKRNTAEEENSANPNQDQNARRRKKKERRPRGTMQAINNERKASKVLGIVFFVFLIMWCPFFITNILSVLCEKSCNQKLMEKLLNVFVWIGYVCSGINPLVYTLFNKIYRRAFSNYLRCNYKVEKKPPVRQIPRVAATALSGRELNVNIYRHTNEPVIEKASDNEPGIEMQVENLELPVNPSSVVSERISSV
Source text: as §1

[41] = test system: Transporter, GABA; experiment: Selectivity panel; assay type: binding
Source text: as §1

[42] = target: T28, Transporter, dopamine (DAT) (Homo sapiens, UniProt Q01959); experiment: Selectivity panel; assay type: binding
T28 construct: purchased Eurofins Panlabs Taiwan Ltd
T28 sequence (Q01959 whole entry): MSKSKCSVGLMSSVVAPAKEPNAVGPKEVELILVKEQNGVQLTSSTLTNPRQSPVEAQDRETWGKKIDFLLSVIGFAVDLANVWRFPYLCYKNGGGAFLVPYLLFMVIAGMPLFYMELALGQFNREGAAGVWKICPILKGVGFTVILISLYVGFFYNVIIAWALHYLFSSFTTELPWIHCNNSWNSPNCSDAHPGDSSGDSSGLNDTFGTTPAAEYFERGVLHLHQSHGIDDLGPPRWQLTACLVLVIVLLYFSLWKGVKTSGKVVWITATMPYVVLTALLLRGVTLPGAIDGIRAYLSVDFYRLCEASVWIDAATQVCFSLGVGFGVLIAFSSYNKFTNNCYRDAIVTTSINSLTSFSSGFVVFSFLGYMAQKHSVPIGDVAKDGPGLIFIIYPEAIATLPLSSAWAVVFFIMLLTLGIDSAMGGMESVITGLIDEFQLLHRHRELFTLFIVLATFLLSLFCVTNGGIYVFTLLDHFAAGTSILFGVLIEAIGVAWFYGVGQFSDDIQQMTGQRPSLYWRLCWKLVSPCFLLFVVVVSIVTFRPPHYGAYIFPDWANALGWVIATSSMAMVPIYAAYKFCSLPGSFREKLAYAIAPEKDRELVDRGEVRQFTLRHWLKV
Source text: as §1

[43] = test system: Transporter, vesicular monoamine (non-selective); experiment: Selectivity panel; assay type: binding
Source text: as §1

Cc1c(Cc2ccc(Cl)nc2)cc2c(c1Cl)OCN([C@H]1CCC[C@@H]1O)C2=O [T‐495, 8‐chloro‐6‐((6‐chloropyridin‐3‐yl)methyl)‐3‐((1S,2S)‐2‐hydroxycyclopentyl)‐7‐methyl‐2,3‐dihydro‐4H‐1,3‐benzoxazin‐4‐one]
significant inhibition or stimulation (≥50%) in panel of 106 targets [1]: No significant inhibition or stimulation (≥50%) was observed, except for two targets | % inhibition at 10 μM [2]: 0% | % inhibition at 10 μM [3]: 4% | inhibition at 10 µM [4]: -9% | % inhibition at 10 μM [5]: 2% | inhibition at 10 µM [6]: -2% | inhibition at 10 µM [7]: 31% | inhibition at 10 µM [8]: 15% | inhibition at 10 µM [9]: 5% | inhibition at 10 µM [10]: 3% | inhibition at 10 µM [11]: 10% | inhibition at 10 µM [12]: 36% | inhibition at 10 µM [13]: 6% | inhibition at 10 µM [14]: 0% | inhibition at 10 µM [15]: -2% | inhibition at 10 µM [16]: 5% | % inhibition at 10 μM [17]: 2% | inhibition at 10 µM [18]: 2% | % inhibition at 10 μM [19]: 22% | inhibition at 10 µM [20]: 48% | inhibition at 10 µM [21]: 6% | % inhibition at 10 μM [22]: -4% | % inhibition at 10 μM [23]: 0% | inhibition at 10 µM [24]: 9% | % inhibition at 10 μM [25]: 2% | inhibition at 10 µM [26]: 7% | inhibition at 10 µM [27]: -4% | % inhibition at 10 μM [28]: 27% | inhibition at 10 µM [29]: 2% | inhibition at 10 µM [30]: -7% | inhibition at 10 µM [31]: 15% | % inhibition at 10 μM [32]: 4% | % inhibition at 10 μM [33]: 13% | inhibition at 10 µM [34]: 2% | inhibition at 10 µM [35]: 8% | inhibition at 10 µM [36]: 4% | inhibition at 10 µM [37]: 12% | % inhibition at 10 μM [38]: 1% | inhibition at 10 µM [39]: 21% | inhibition at 10 µM [40]: 10% | % inhibition at 10 μM [41]: -7% | inhibition at 10 µM [42]: 58% | % inhibition at 10 μM [43]: 12%

Reference: article PMC6986443, “T‐495, a novel low cooperative M1 receptor positive allosteric modulator, improves memory deficits associated with cholinergic dysfunction and is characterized by low gastrointestinal side effect risk” (Pharmacology Research & Perspectives, 2020)
